The results in this text go back to patent publication US20240116985A1, “STAPLED PEPTIDES AND METHODS THEREOF” (priority 2020, published 2024).

This series can be described thus: CHI Log D procedure. Type of series: physicochemical. Particulars: for chromatographic logD: pH 7.4, CHI Log D; for CHI Log D: pH 7.4.

Structures are written as SMILES.

As to `CC(=O)N[C@@H](Cc1ccccc1)C(=O)N[C@@H](CC(=O)O)C(=O)N[C@@H](C)C(=O)N[C@]1(C)CCCCCCC=CCOC(=O)N2CC[C@@](C(=O)N[C@@H](Cc3ccccc3C(N)=O)C(=O)N[C@@H](Cc3c[nH]c4ccccc34)C(=O)N[C@@H](CCC(N)=O)C(N)=O)(C2)NC(=O)[C@H](C(C)C)NC(=O)[C@H](Cc2ccccc2)NC(=O)[C@H](C)NC(=O)[C@H](C)NC(=O)[C@H](CC(=O)O)NC(=O)[C@H](CC(=O)O)NC1=O` (single isomer, unassigned) [I-105, Ac-Phe-Asp-Ala-R8-Asp-Asp-Ala-Ala-Phe-Val-PyrS-2CBMF-Trp-Gln-NH2], the chromatographic logD (usually lipophilicity estimated from chromatographic retention) came to 1.03.

With `CC(=O)N[C@@H](Cc1ccccc1)C(=O)N[C@@H](CC(=O)O)C(=O)N[C@@H](C)C(=O)N[C@]1(C)CCCCCCC=CCOC(=O)N2CC[C@@](C(=O)N[C@@H](Cc3ccccc3C(N)=O)C(=O)N[C@@H](Cc3c[nH]c4ccccc34)C(=O)N[C@@H](CCC(N)=O)C(N)=O)(C2)NC(=O)[C@H](C(C)C)NC(=O)[C@H](Cc2ccccc2)NC(=O)[C@H](C)NC(=O)[C@H](C)NC(=O)[C@H](CC(=O)O)NC(=O)[C@H](CC(=O)O)NC1=O` (single isomer, unassigned) [I-106, Ac-Phe-Asp-Ala-R8-Asp-Asp-Ala-Ala-Phe-Val-PyrS-2CBMF-Trp-Gln-NH2], the “CHI Log D” value came out at 1.038. The compound `CC(=O)N[C@@H](Cc1ccccc1)C(=O)N[C@@H](CC(=O)O)C(=O)N[C@@H](C)C(=O)N[C@]1(C)CCCCCCC=CCOC(=O)N2CC[C@@](C(=O)N[C@@H](Cc3ccccc3)C(=O)N[C@@H](Cc3c[nH]c4ccccc34)C(=O)N[C@@H](CCC(N)=O)C(N)=O)(C2)NC(=O)[C@H](C(C)C)NC(=O)[C@H](Cc2cccc(C(N)=O)c2)NC(=O)[C@H](C)NC(=O)[C@H](C)NC(=O)[C@H](CC(=O)O)NC(=O)[C@H](CC(=O)O)NC1=O` (single isomer, unassigned) [I-108, Ac-Phe-Asp-Ala-R8-Asp-Asp-Ala-Ala-3CBMF-Val-PyrS-Phe-Trp-Gln-NH2] showed a chromatographic logD of 1.15. Same read-out and setting: to `CC(=O)N[C@@H](Cc1ccccc1)C(=O)N[C@@H](CC(=O)O)C(=O)N[C@@H](C)C(=O)N[C@]1(C)CCCCCCC=CCOC(=O)N2CC[C@@](C(=O)N[C@@H](Cc3ccccc3)C(=O)N[C@@H](Cc3c[nH]c4ccccc34)C(=O)N[C@@H](CCC(N)=O)C(N)=O)(C2)NC(=O)[C@H](C(C)C)NC(=O)[C@H](Cc2ccc3ccccc3c2)NC(=O)[C@H](C)NC(=O)[C@H](C)NC(=O)[C@H](CC(=O)O)NC(=O)[C@H](CC(=O)O)NC1=O` (single isomer, unassigned) [I-112, Ac-Phe-Asp-Ala-R8-Asp-Asp-Ala-Ala-2NapA-Val-PyrS-Phe-Trp-Gln-NH2] belongs 1.4.

`CC(=O)N[C@@H](Cc1ccccc1)C(=O)N[C@@H](CC(=O)O)C(=O)N[C@@H](C)C(=O)N[C@]1(C)CCCCCCC=CCOC(=O)N2CC[C@@](C(=O)N[C@@H](Cc3ccccc3)C(=O)N[C@@H](Cc3c[nH]c4ccccc34)C(=O)N[C@@H](CCC(N)=O)C(N)=O)(C2)NC(=O)[C@H](C(C)C)NC(=O)[C@H](CCc2ccccc2)NC(=O)[C@H](C)NC(=O)[C@H](C)NC(=O)[C@H](CC(=O)O)NC(=O)[C@H](CC(=O)O)NC1=O` (single isomer, unassigned) [I-117, Ac-Phe-Asp-Ala-R8-Asp-Asp-Ala-Ala-hPhe-Val-PyrS-Phe-Trp-Gln-NH2] gave a chromatographic logD of 1.33. On the same count and under the same terms, with `CC(=O)N[C@@H](Cc1ccccc1)C(=O)N[C@@H](CC(=O)O)C(=O)N[C@@H](C)C(=O)N[C@]1(C)CCCCCCC=CCOC(=O)N2CC[C@@](C(=O)N[C@@H](CC(=O)O)C(=O)N[C@@H](Cc3c[nH]c4ccccc34)C(=O)N[C@@H](CCC(N)=O)C(N)=O)(C2)NC(=O)[C@H](C(C)C)NC(=O)[C@H](Cc2ccccc2)NC(=O)[C@H](C)NC(=O)[C@H](C)NC(=O)[C@H](CC(=O)O)NC(=O)[C@H](CC(=O)O)NC1=O` (single isomer, unassigned) [I-122, Ac-Phe-Asp-Ala-R8-Asp-Asp-Ala-Ala-Phe-Val-PyrS-Asp-Trp-Gln-NH2] the figure was 0.84.

For `CCCC[C@@H]1NC(=O)[C@H](CC(=O)O)NC(=O)C2(CCCC=CCCCCCC[C@@](C)(C(=O)N[C@@H](Cc3ccccc3)C(=O)N[C@@H](Cc3c[nH]c4ccccc34)C(=O)N[C@@H](CCC(N)=O)C(N)=O)NC(=O)[C@H](C(C)C)NC(=O)[C@H](Cc3ccccc3)NC(=O)[C@H](C)NC(=O)[C@H](C)NC1=O)CCCC=CC[C@]1(CCCN1C(C)=O)C(=O)N[C@@H](CC(=O)O)C(=O)N[C@@H](C)C(=O)N2` (single isomer, unassigned) [I-138, Ac-PL3-Asp-Ala-B5-Asp-nLeu-Ala-Ala-Phe-Val-S8-Phe-Trp-Gln-NH2], the chromatographic logD is 1.81. As to `CCCC[C@@H]1NC(=O)[C@H](CC(=O)O)NC(=O)C2(CCCC=CCCCCCC[C@@](C)(C(=O)N[C@@H](Cc3ccccc3)C(=O)N[C@@H](Cc3c[nH]c4ccccc34)C(=O)N[C@@H](CCC(N)=O)C(N)=O)NC(=O)[C@H](C(C)C)NC(=O)[C@H](Cc3ccccc3)NC(=O)[C@H](C)NC(=O)[C@H](C)NC1=O)CCCC=CC[C@]1(CCCN1C(C)=O)C(=O)N[C@@H](CC(=O)O)C(=O)N[C@@H](C)C(=O)N2` (single isomer, unassigned) [I-139, Ac-PL3-Asp-Ala-B5-Asp-nLeu-Ala-Ala-Phe-Val-S8-Phe-Trp-Gln-NH2], the “CHI Log D” value was 2.834. For `CC(=O)N[C@@H](Cc1ccccc1)C(=O)N[C@@H](CC(=O)O)C(=O)N[C@@H](C)C(=O)N[C@]1(C)CCCCCCC=CCOC(=O)N2CC[C@@](C(=O)N[C@@H](CCC(=O)O)C(=O)N[C@@H](Cc3c[nH]c4ccccc34)C(=O)N[C@@H](CCC(N)=O)C(N)=O)(C2)NC(=O)[C@H](C(C)C)NC(=O)[C@H](Cc2ccccc2)NC(=O)[C@H](C)NC(=O)[C@H](C)NC(=O)[C@H](CC(=O)O)NC(=O)[C@H](CC(=O)O)NC1=O` (single isomer, unassigned) [I-161, Ac-Phe-Asp-Ala-R8-Asp-Asp-Ala-Ala-Phe-Val-PyrS-Glu-Trp-Gln-NH2], the chromatographic logD was found to be 0.816. For `CC(=O)N[C@@H](Cc1ccccc1)C(=O)N[C@@H](CC(=O)O)C(=O)N[C@@H](C)C(=O)N[C@]1(C)CCCCCCC=CCOC(=O)N2CC[C@@](C(=O)N[C@@H](CCC(=O)O)C(=O)N[C@@H](Cc3c[nH]c4ccccc34)C(=O)N[C@@H](CCC(N)=O)C(N)=O)(C2)NC(=O)[C@H](C(C)C)NC(=O)[C@H](Cc2ccccc2)NC(=O)[C@H](C)NC(=O)[C@H](C)NC(=O)[C@H](CC(=O)O)NC(=O)[C@H](CC(=O)O)NC1=O` (single isomer, unassigned) [I-162, Ac-Phe-Asp-Ala-R8-Asp-Asp-Ala-Ala-Phe-Val-PyrS-Glu-Trp-Gln-NH2], the “CHI Log D” value is reported as 0.827.

Take `CC(=O)N1CCC[C@]12CC=CCCCC1(CCCC=CCCCCCC[C@@](C)(C(=O)N[C@@H](Cc3ccccc3)C(=O)N[C@@H](Cc3c[nH]c4ccccc34)C(=O)N[C@@H](CCC(N)=O)C(N)=O)NC(=O)[C@H](C(C)C)NC(=O)[C@H](Cc3ccccc3)NC(=O)[C@H](C)NC(=O)[C@H](C)NC(=O)[C@@](C)(CC(C)C)NC(=O)[C@H](CC(=O)O)NC1=O)NC(=O)[C@H](C)NC(=O)[C@H](CC(=O)O)NC2=O` (single isomer, unassigned) [I-215, Ac-PL3-Asp-Ala-B5-Asp-DaMeL-Ala-Ala-Phe-Val-S8-Phe-Trp-Gln-NH2]: the chromatographic logD worked out at 2.87.
